In patent publication US20130310256A1, “HERBICIDAL COMPOSITIONS COMPRISING 4-AMINO-3-CHLORO-5-FLUORO-6-(4-CHLORO-2-FLUORO-3-METHOXYPHENYL) PYRIDINE-2-CARBOXYLIC ACID OR A DERIVATIVE THEREOF AND VLCFA AND LIPID SYNTHESIS INHIBITING HERBICIDES” (DOW AGROSCIENCES LLC, priority 2008, published 2013):

Tests used:
[1] = system: ECHOR; assay: Example II: in-water applied weed control, transplanted paddy rice, greenhouse; format: in vivo, Echinochloa oryzoides (Ard.) Fritsch (early watergrass); details: for Visual Weed Control ECHOR Obs: 19 DAA
Procedure: (§1) Weed seeds or nutlets of the desired test plant species were planted in puddled soil (mud) prepared by mixing a shredded, non-sterilized mineral soil (50.5 percent silt, 25.5 percent clay, and 24 percent sand, with a pH of about 7.6 and an organic matter content of about 2.9 percent) and water at a 1:1 volumetric ratio. The prepared mud was dispensed in 365 mL aliquots into 16-ounce (oz.) non-perforated plastic pots with a surface area of 86.59 square centimeters (cm^2) leaving a headspace of 3 centimeters (cm) in each pot. Mud was allowed to dry overnight prior to planting or transplanting. Rice seeds were planted in Sun Gro MetroMix® 306 planting mixture, which typically has a pH of 6.0 to 6.8 and an organic matter content of about 30 percent, in plastic plug trays. Seedlings at the second or third leaf stage of growth were transplanted into 840 mL of mud contained in 32-oz. non-perforated plastic pots with a surface area of 86.59 cm^2 4 days prior to herbicide application. The paddy was created by filling the headspace of the pots with 2.5 to 3 cm of water. When required to ensure good germination and healthy plants, a fungicide treatment and/or other chemical or physical treatment was applied. The plants were grown for 4-22 days in a greenhouse with an approximate 14 hr photoperiod which was maintained at about 29′C during the day and 26° C. during the night. Nutrients were added as Osmocote® (19:6:12, N:P:K+ minor nutrients) at 2 g per 16-oz. pot and 4 g per 32-oz. pot. Water was added on a regular basis to maintain the paddy flood, and supplemental lighting was provided with overhead metal halide 1000-Watt lamps as necessary. The plants were employed for testing when they reached the first through fourth true leaf stage.
(§2) Treatments consisted of the acid or esters of 4-amino-3-chloro-5-fluoro-6-(4-chloro-2-fluoro-3-methoxy-phenyl)pyridine-2-carboxylic acid (compound A) each formulated as an SC (suspension concentrate) and various herbicidal components alone and in combination. Forms of compound A were applied on an acid equivalent basis.
(§3) The herbicidal components were applied on an active ingredient basis and included very long chain fatty acid (VLCFA) synthesis-inhibiting and fatty acid/lipid synthesis-inhibiting herbicides acetochlor (technical grade material), acetochlor+dichlormid formulateded as Topnotch®, pretilachlor (technical grade material), butachlor formulated as Butachlor EC, fentrazamide formulated as Fentrazamide EC, thiobencarb formulated as Bolero® 8EC, cafenstrole formulated as Himeadow® WP or Lapost® Flowable, benfuresate formulated as Full Shot®, anilofos (technical grade material), mefenacet (technical grade material), molinate (technical grade material), and thenylchlor (technical grade material).
(§4) Treatment requirements for each compound or herbicidal component were calculated based upon the rates being tested, the concentration of active ingredient or acid equivalent in the formulation, an application volume of 2 mL per component per pot, and an application area of 86.59 cm^2 per pot.
(§5) For formulated compounds, a measured amount was placed in an individual 100 or 200 mL glass vial and was dissolved in a volume of 1.25% (v/v) Agri-Dex® crop oil concentrate to obtain application solutions.
(§6) For technical grade compounds, a weighed amount was placed in an individual 100 to 200 mL glass vial and was dissolved in a volume of acetone to obtain concentrated stock solutions. […] The concentrated stock solutions obtained were diluted with an equivalent volume of an aqueous mixture containing 2.5% (v/v) crop oil concentrate so that the final application solutions contained 1.25% (v/v) crop oil concentrate.
(§7) Applications were made by injecting with a pipetter appropriate amounts of the application solutions, individually and sequentially, into the aqueous layer of the paddy. Control plants were treated in the same manner with the solvent blank. […]

[2] = system: ECHCG; assay: Example I: postemergence foliar-applied weed control, greenhouse; format: in vivo, Echinochloa crus-galli (L.) Beauv. (barnyardgrass); details: 20 DAA
Text: (§8) Seeds or nutlets of the desired test plant species were planted in a soil matrix prepared by mixing a loam or sandy loam soil (e.g., 28.6 percent silt, 18.8 percent clay, and 52.6 percent sand, with a pH of about 5.8 and an organic matter content of about 1.8 percent) and calcareous grit in an 80 to 20 ratio. The soil matrix was contained in plastic pots with a volume of 1 quart and a surface area of 83.6 square centimeters (cm^2). When required to ensure good germination and healthy plants, a fungicide treatment and/or other chemical or physical treatment was applied. The plants were grown for 8-22 days in a greenhouse with an approximate 14 hr photoperiod which was maintained at about 29° C. during the day and 26° C. during the night. Nutrients (Peters Excel® 15-5-15 5-Ca 2-Mg and iron chelate) were applied in the irrigation solution as needed and water was added on a regular basis. Supplemental lighting was provided with overhead metal halide 1000-Watt lamps as necessary. The plants were employed for testing when they reached the first through fourth true leaf stage.
as §2, with “(Compound A),” for “(compound A)”, “concentrate),” for “concentrate)”
(§9) Other herbicidal components were applied on an active ingredient basis and included very long chain fatty acid (VLCFA) synthesis-inhibiting and fatty acid/lipid synthesis-inhibiting herbicides acetochlor (technical grade material), acetochlor+dichlormid formulated as Topnotch®, pretilachlor (technical grade material), butachlor formulated as Butachlor EC, fentrazamide formulated as Fentrazamide EC, thiobencarb formulated as Bolero® 8EC, cafenstrole formulated as Himeadow® WP or Lapost® Flowable, benfuresate formulated as Full Shot®, dimethenamid-P formulated as Outlook®, indanofan (technical grade material), flufenacet formulated as Define® DF, mefenacet (technical grade material), S-metolachlor formulated as Dual® II Magnum, pethoxamid formulated as Successor® 600, and pyroxasulfone (technical grade material).
(§10) Treatment requirements were calculated based upon the rates being tested, the concentration of active ingredient or acid equivalent in the formulation, and a 12 mL application volume at a rate of 187 L/ha.
(§11) For treatments comprised of formulated compounds, measured amounts of compounds were placed individually in 25 mL glass vials and diluted in a volume of 1.25% (v/v) Agri-Dex® crop oil concentrated to obtain 12× stock solutions. […] Application solutions were prepared by adding an appropriate amount of each stock solution (e.g., 1 mL) and diluted to the appropriate final concentrations with the addition of 10 mL of an aqueous mixture of 1.25% (v/v) crop oil concentrate so that the final spray solutions contained 1.25+/−0.05% (v/v) crop oil concentrate.
(§12) For treatments comprised of technical compounds, weighed amounts can be placed individually in 25 mL glass vials and dissolved in a volume of 97:3 v/v acetone/DMSO to obtain 12× stock solutions. […] Application solutions can be prepared by adding an appropriate amount of each stock solution (e.g., 1 mL) and diluted to the appropriate final concentrations with the addition of 10 mL of an aqueous mixture of 1.5% (v/v) crop oil concentrate so that the final spray solutions contain 1.25% (v/v) crop oil concentrate. When technical materials are used, the concentrated stock solutions can be added to the spray solutions so that the final acetone and DMSO concentrations of the application solutions are […], respectively. […]

[3] = system: LEFCH; assay: as above; format: in vivo, Leptochloa chinensis (L.) Nees (Chinese sprangletop); details: 20 DAA
Text: as §8
as §2, with “(Compound A),” for “(compound A)”, “concentrate),” for “concentrate)”
as §9, §10, §11, §12

[4] = system: ECHCO; assay: as above; format: in vivo, Echinochloa colona (L.) Link (junglerice); details: 20 DAA
Text: as §8
as §2, with “(Compound A),” for “(compound A)”, “concentrate),” for “concentrate)”
as §9, §10, §11, §12

[5] = system: BRAPP; assay: Example I: postemergence foliar-applied weed control, direct seeded rice weeds, greenhouse; format: in vivo; details: 20 DAA
Text: as §8
as §2, with “(Compound A),” for “(compound A)”, “concentrate),” for “concentrate)”
as §9, §10, §11, §12

[6] = system: DIGSA; assay: Example I: postemergence foliar-applied weed control, greenhouse; format: in vivo, Digitaria sanguinalis (L.) Scop. (large crabgrass); details: 20 DAA
Text: as §8
as §2, with “(Compound A),” for “(compound A)”, “concentrate),” for “concentrate)”
as §9, §10, §11, §12

[7] = system: ECHCG; assay: Example II: in-water applied weed control, transplanted paddy rice, greenhouse; format: in vivo, Echinochloa crus-galli (L.) Beauv. (barnyardgrass); details: 100 gai/ha, 19 DAA
Procedure: as §1, §2, §3, §4, §5, §6, §7

[8] = system: CYPRO; assay: as above; format: in vivo, Cyperus rotundus L. (purple nutsedge); details: 19 DAA
Procedure: as §1, §2, §3, §4, §5, §6, §7

[9] = system: FIMMI; assay: as above; format: in vivo, Fimbristylis miliacea (L.) Vahl (globe fringerush); details: 19 DAA
Procedure: as §1, §2, §3, §4, §5, §6, §7

CCN(C(=O)n1nnn(-c2ccccc2Cl)c1=O)C1CCCCC1 [Fentrazamide, 4-(2-chlorophenyl)-N-cyclohexyl-N-ethyl-4,5-dihydro-5-oxo-1H-tetrazole-1-carboxamide]
Visual Weed Control (%) - 21 DAA ECHOR Obs ([1]; 50 gai/ha): 50% | Visual Weed Control Obs ([2]; 16.88 gai/ha): 0% | Visual Weed Control Obs ([2]; 33.75 gai/ha): 0% | Visual Weed Control Obs ([2]; 67.5 gai/ha): 20% | Visual Weed Control Obs ([2]; 75 gai/ha): 0% | Visual Weed Control Obs ([2]; 150 gai/ha): 5% | Visual Weed Control Obs ([2]; 300 gai/ha): 13% | Visual Weed Control Obs ([3]; 33.75 gai/ha): 0% | Visual Weed Control Obs ([3]; 67.5 gai/ha): 0% | Visual Weed Control Obs ([4]; 16.88 gai/ha): 0% | Visual Weed Control Obs ([4]; 33.75 gai/ha): 15% | Visual Weed Control Obs ([4]; 67.5 gai/ha): 10% | Visual Weed Control Obs ([5]; 16.88 gai/ha): 0% | Visual Weed Control Obs ([5]; 33.75 gai/ha): 0% | Visual Weed Control Obs ([5]; 67.5 gai/ha): 55% | Visual Weed Control Obs ([6]; 33.75 gai/ha): 0% | Visual Weed Control Obs ([6]; 67.5 gai/ha): 30%

S-[2-[(4-chlorophenyl)(1-methylethyl)amino]-2-oxoethyl]O,O-dimethyl phosphorodithioate [Anilofos]
Visual Weed Control ECHOR Obs ([1]; 100 gai/ha): 40% | Visual Weed Control ECHOR Obs ([1]; 200 gai/ha): 80% | Visual Weed Control ECHCG Obs [7]: 20% | Visual Weed Control CYPRO Obs ([8]; 100 gai/ha): 0% | Visual Weed Control CYPRO Obs ([8]; 200 gai/ha): 0% | Visual Weed Control CYPRO Obs ([8]; 400 gai/ha): 0% | Visual Weed Control FIMMI Obs ([9]; 100 gai/ha): 0% | Visual Weed Control FIMMI Obs ([9]; 200 gai/ha): 0% | Visual Weed Control FIMMI Obs ([9]; 400 gai/ha): 10%
